According to patent US20170305984A1, “STATHERIN PEPTIDES” (THE UNIVERSITY OF WESTERN ONTARIO, priority 2014, published 2017):
Entries after “also recorded” stand apart in the source; their conditions may differ. Marks after values point to notes of the source that are not given here. Square brackets hold non-standard residues; d marks the D form. Ends that are not written are not given here. pS = N[C@@H](COP(=O)(O)O)C(=O)O

How the values were obtained:
[1] = Enamel demineralization protection by constructed peptides: calcium and phosphate released from enamel (Example 1); set-up: species or system human; details: for Mean Ca Conc. (calcium released from human enamel) / Mean PO4 Conc. (phosphate released from human enamel): 1 mg/mL peptide 2 hours 37° C., then demineralization solution pH 4.5, 37° C., 12 days, mean ± SD; for Enamel demineralization protection / mineral loss (in words): versus distilled water control and other groups, ANOVA, Tukey
Description: Enamel sample preparation was done as previously described (Siqueira et. al. 2010, J Dent Res. 2010; 89: 626-630, the relevant contents of which are incorporated herein by reference). Briefly, human permanent first molars without defects were cleaned, rinsed, and sectioned. After having the roots removed, the crowns were sliced sagittally into 4 sections (each with a 300 μm thickness) using a diamond saw, followed by grinding to a thickness of 150 μm using sandpaper. Each specimen was coated with a layer of light-cured dental adhesive (3M ESPE Scotchbond™ Universal) and nail varnish, excluding an untouched 2 mm window on the natural surface enamel. Each specimen was submerged in 1 mg/mL construct peptide solution or distilled water (control group) and incubated for 2 hours at 37° C. After this period, the samples were then submerged in 1 mL of demineralization solution (0.05M acetic acid; 2.2 mM CaCl2; 2.2 mM NaH2PO4; pH 4.5) at 37° C. for 12 days. Afterward, they were rinsed thoroughly with distilled water and dried with filter paper to remove any remaining acid residue. The remaining 1 mL of acidic solution was used to assess the calcium and phosphate concentration released from enamel during the demineralization process. The calcium concentration of the solution was assessed using a quantitative colorimetric calcium determination assay (QuantiChrom™ Calcium Assay Kit, Bioassay Systems, Hayward, Calif., USA) with a UV-visible spectrophotometer to determine the optical density at a wavelength of 612 nm. The phosphate concentration was assessed using a colorimetric assay (PiColorLock™ Gold Detection System, Innova Biosciences, Cambridge, U.K.) and UV-visible spectrophotometer, to determine the optical density at a wavelength of 635 nm. All samples were analyzed in duplicate. Statistical analysis was performed with ANOVA and the Tukey Range Test.

[2] = Chitosan encapsulation rate, ELISA of remaining unencapsulated protein or peptide; format: physicochemical; details: encapsulation in chitosan nanoparticles
Description: Based on the optimized parameters for construction of chitosan micro- and nanoparticles, AEP was mixed directly with the chitosan solution. Chitosan micro- and nanoparticles were constructed, as described above, and the particles were characterized through Zeta sizing and SEM. Reverse Phase-High Performance Liquid Chromatography (RP-HPLC) and/or enzyme-linked immunosorbent assay (ELISA) was used to determine the degree of encapsulation by measuring the amount of free peptides, before and after the encapsulation procedure. Chitosan encapsulation of histatin 5, DR-9, RR-14 and bovine serum albumin was carried out to determine the chitosan encapsulation rate. ELISA assay assessed the remaining unencapsulated protein or peptide.

[3] = Inhibition of spontaneous precipitation of supersaturated calcium phosphate solutions (Alizarin Red S, 570 nm); details: all test concentrations, compared to a group without any inhibitor; FIG. 4
Protocol: To investigate the ability of the chitosan encapsulated AEP proteins/peptides to prevent crystal growth, microtiter plates were coated with proteins/peptides in a HEPES buffer at RT for 1 h. The wells were washed followed by the addition of a solution containing phosphate (15 mM; pH 7.4), NaCl (150 mM) and CaCl2 (50 mM). The solutions were incubated for 4 h at room temperature, allowing the formation of hydroxyapatite crystals. After this period, the solution was removed, 5% Alizarin Red S (pH 4.2), was added, followed by cerylpyridinium chloride. Crystal production was analyzed spectrophotometrically at 570 nm.

[4] = Enamel demineralization with chitosan nanoparticle coatings: calcium and phosphate released from enamel (Table 3); set-up: species or system human; details: for demineralization / acid protection (in words): coated enamel vs not coated control, pH 4.5, 12 days
Protocol: Demineralization studies are conducted using thin sections of human enamel. Enamel minerals were analyzed using microradiography. To determine the influence of selected chitosan encapsulated salivary proteins on enamel demineralization, resin-coated enamel sections were first exposed to solutions containing chitosan encapsulated salivary proteins at a concentration of 1.0 mg/ml for 2 h at 37° C. To mimic the acidic environment of dental caries, chitosan encapsulated salivary proteins and control sections were placed into individual tubes with 3 ml of a demineralization solution containing 2.2 mM CaCl2, 2.2 mM NaH2PO4, 5 mM acetic acid, a pH 4.5. The sample was incubated at 37° C. with gentle agitation for a period of 12 days. All solutions contained 3 mM sodium azide as a bacteriostatic agent. Immediately after the demineralization period, the specimens were extensively washed with distilled water and dried with filter paper. Mineral loss was evaluated by comparing the microradiography taken before and after exposure to the acidic conditions. Enamel pieces were prepared as described and coated with chitosan nanoparticles, DR-9 encapsulated in chitosan nanoparticles, DR-9, and 0.05% NaF (gold standard group). In some groups, parotid saliva was allowed to adsorb first on enamel species to mimic the AEP (Table 3). Adsorption was allowed to proceed for a period of 2 hours at 37° C. with gentle agitation. Enamel specimens were then washed with distilled water and immersed in a demineralization solution, pH 4.5 for 12 days. This solution was used to measure the amount of calcium and phosphate released from enamel.

[5] = all studied concentrations, compared to other native statherin peptides; p<0.05; cited from earlier work
[6] = adsorbed for 2 hrs at 37° C., demineralization solution pH 4.5 for 12 days, n = 10

Molecule | Mean Ca Conc. (calcium released from human enamel) [1] | Mean PO4 Conc. (phosphate released from human enamel) [1] | Encapsulation Efficiency [2] [%] | Enamel demineralization protection / mineral loss (in words) [1] | other results
DSpSpEEKFLR (D[pS][pS]EEKFLR) [DR9] | 1.455 ± 2.13^B, C mM | 0.849 ± 1.80^B, C mM | 75.5 | – | inhibition of calcium phosphate crystal growth [3]: statistically significant inhibition of calcium phosphate crystal growth; demineralization / acid protection (in words) [4]: intermediary level of demineralization protection; hydroxyapatite growth inhibition [5]: significant effect
DSpSpEEKFLRDSpSpEEKFLR (D[pS][pS]EEKFLRD[pS][pS]EEKFLR) [DR9-DR9] | 0.581 ± 0.16^C mM | 0.514 ± 0.18^C mM | – | lowest mineral loss; also recorded: amplified by DR9-DR9 when compared to single DR9 or statherin | –
[F-].[Na+] [NaF] | – | – | – | – | Calcium released from enamel [4, 6]: 0.30 ± 0.13 ^b mM; Phosphate released from enamel [4, 6]: 0.17 ± 0.06 ^b mM; demineralization / acid protection (in words) [4]: better acid protection
Bovine Serum Albumin: model protein for chitosan encapsulation | – | – | 88.3 | – | –
DSpSpEEKFLRRIGRFGYGYGPYQPVPEQPLYPQPYQPQYQQYTF (D[pS][pS]EEKFLRRIGRFGYGYGPYQPVPEQPLYPQPYQPQYQQYTF) [Statherin] | 1.117 ± 1.29^B, C mM | 0.681 ± 1.11^B, C mM | – | – | –
DSpSpEEKFLRVPAGLRKFHEKHHSHRGYR (D[pS][pS]EEKFLRVPAGLRKFHEKHHSHRGYR) [DR9-VPAGL-RR14] | 4.755 ± 1.35^A mM | 3.917 ± 0.82^A mM | – | did not provide any increased demineralization protection over the control | –
Histatin 5 | – | – | 82.9 | – | –
RKFHEKHHSHRGYR [RR-14] | – | – | 93.1 | – | –
DSpSpEEKFLRRKFHEKHHSHRGYR (D[pS][pS]EEKFLRRKFHEKHHSHRGYR) [DR9-RR14] | 3.132 ± 2.46^B mM | 2.282 ± 2.01^B mM | – | intermediate value among the groups; also recorded: able to maintain the biological function of one of the precursor proteins, statherin | –
DSpSpEEKFLRVPLSLRKFHEKHHSHRGYR (D[pS][pS]EEKFLRVPLSLRKFHEKHHSHRGYR) [DR9-VPLSL-RR14] | 4.106 ± 2.13^A mM | 3.159 ± 1.85^A mM | – | did not provide any increased demineralization protection over the control | –
